Results: BigSolDB 2.1

CC(O)(P(=O)(O)O)P(=O)(O)O.O
solubility (mole fraction)
Conditions | 293.15 K | 298.15 K | 303.15 K | 308.15 K | 313.15 K | 318.15 K | 323.15 K | 328.15 K
in acetic acid | 0.00181 | 0.0019 | 0.00196 | 0.002 | 0.002 | 0.00214 | 0.00225 | 0.00224
in water | 0.174 | 0.182 | 0.19 | 0.198 | 0.207 | 0.215 | 0.225 | 0.235
